Reference: publication PMC7370100, “In Vitro Assessment of the Genotoxic Hazard of Novel Hydroxamic Acid- and Benzamide-Type Histone Deacetylase Inhibitors (HDACi)” (International Journal of Molecular Sciences, 2020)

What was measured:
V79 cells [1] = test system: V79 cells
Experimental: We analyzed the frequency of micronuclei in binucleated cells, as described [86]. Briefly, logarithmically growing cells were treated with cytochalasin B (3 µg/m) for 24 h. After fixation with formaldehyde (3.7% in PBS, 20 min, RT) and washing with PBS, cells were permeabilized using precooled methanol (20 min, −20 °C.) After washing with PBS and rinsing the cell layer with PBS containing Triton X100 (PBST; 0.3% Triton X100 in PBS), DNA was stained by DAPI (4´,6-diamino-2-phenylindole) and the number of micronuclei was evaluated by fluorescence microscopy. Data shown are the mean ± SEM of three independent experiments with ≥1000 binucleated cells evaluated per experimental condition.

V79 cells [2] = test system: V79 cells; remark: listed apart in the source
Experimental: The formation of DNA strand breaks and apurinic/apyrimidinic sites was monitored employing the alkaline comet assay [87], which is part of the OECD guideline of in vivo genotoxicity testings and detects DNA strand breaks (DNA single- and double-strand breaks) and alkali-labile sites [87]. Briefly, after aspiration of the medium and trypsinization, cells were mixed with 0.5% melting agarose and transferred onto agarose-coated (1.5%) slides. After lysis in alkaline buffer (pH 10) (1 h, 4 °C, light protection) and unwinding of the DNA in precooled lysis buffer (pH >13) (20 min, 4 °C, light protection), electrophoresis was performed (electric current: 300 mA constant; 1 V/cm). After neutralization in salt buffer (pH 7.5) and staining with propidium iodide solution (50 µg/mL), comets were evaluated by fluorescence microscopy. Quantification of migrated DNA was performed with TriTek Comet Score™ software Version 1.5, evaluating ≥50 cells per condition (blinded assessment). […] Fold increase in tail intensities of treated cells were calculated by relating the % DNA in tail of treated cells to that of the corresponding untreated controls, which were set to 1.0 (see Figure 2B).

[3] = test system: IMR-32 neuroblastoma cells; assay: Neutral red assay (cytotoxicity), IMR-32 cells; assay type: cell-based, human
Experimental: (§1) V79 hamster lung cells, which are recommended in the OECD toxicology guidelines for hazard identification (i.e., cytotoxicity and genotoxicity) of chemicals, were purchased from the German Collection of Microorganisms and Cell Cultures (DSMZ, Braunschweig, Germany). They were cultured in Dulbecco´s modified Eagle medium and Ham´s F12 medium (DMEM/F12) (PromoCell, Heidelberg, Germany) containing 10% fetal calf serum at 37 °C in a humidified atmosphere containing 5% CO2. VC8 hamster cells were defective in DNA double-strand break (DSB) repair by homologous recombination (HR) due to the lack of functional BRCA2 protein [69, 70]. VC8 cells were provided by B. Kaina (Institute of Toxicology, Mainz, Germany). Nucleotide excision repair defective XPA and CSB deficient cells were also provided by B. Kaina and were described before. They were grown in DMEM containing 10% fetal calf serum. Human neuroblastoma cells (IMR-32 and SH-SY5Y) were purchased from the German Collection of Microorganisms and Cell Cultures (DSMZ, Braunschweig, Germany) and were used as a model of malignant cells. They were grown in DMEM or RPMI (Roswell park memorial institute) medium, respectively, containing 10% fetal calf serum. If not stated otherwise, HDACi were added to the exponentially growing cells and analyses were performed 6 h to 72 h later.
(§2) Cell viability was determined using the Alamar blue assay, which reflected the mitochondrial activity. Viable cells were characterized by an effective mitochondrial metabolization of the non-fluorescent dye resazurin (Sigma, Steinheim, Germany) to fluorescent resorufin (excitation: 535 nm, emission: 590 nm). Relative viability in the untreated control was set to 100%. In addition, the Neutral red assay, which measures the integrity of lysosomal membranes, was used to monitor cytotoxicity. To this end, cells were incubated with the Neutral red solution (0.01%) in an atmosphere containing 5% CO2 for 90 min before they were fixed (1% formaldehyde/1% CaCl2). Afterwards, the Neutral red that was taken up by the cells was extracted (50% ethanol/1% of acetic acid, 15 min at room temperature (RT)) and absorbance (540 nm) was measured. If not stated otherwise, data are shown as the mean ± standard deviation (SD) of two to three independent experiments each performed in quadruplicate. Approximate IC50 (~IC50, see Supplementary Table S1) were calculated from the corresponding dose-response curves.

[4] = test system: IMR-32 neuroblastoma cells; assay: Alamar blue assay (cell viability), IMR-32 cells; assay type: cell-based, human
Experimental: as §1, §2

[5] = test system: SH-SY5Y neuroblastoma cells; assay: Neutral red assay (cytotoxicity), SH-SY5Y cells; assay type: cell-based, human
Experimental: as §1, §2

V79 hamster lung cells [6] = assay: Alamar blue assay (cell viability), V79 cells; assay type: cell-based; conditions: Alamar blue assay, approximate IC50
Experimental: as §1, §2

[7] = test system: SH-SY5Y neuroblastoma cells; assay: Alamar blue assay (cell viability), SH-SY5Y cells; assay type: cell-based, human
Experimental: as §1, §2

V79 hamster lung cells [8] = assay: Neutral red assay (cytotoxicity), V79 cells; assay type: cell-based
Experimental: as §1, §2

XPA-deficient cells = assay: Viability of XPA-deficient versus proficient fibroblasts (Alamar blue); assay type: cell-based, human; conditions: 72 h, in words
Experimental: Figure 7 Sensitivity of nucleotide excision repair (NER) defective cells to hydroxamic acid- and benzamide-type HDACi. Viability of wild-type human fibroblasts and fibroblasts defective in nucleotide excision repair (NER) pathways (i.e., global genome nucleotide excision repair (GG-NER) or transcription-coupled nucleotide excision repair (TC-NER)) due to a defect in Xeroderma pigmentosum group A protein (XPA) or Cockayne syndrome protein B (CSB), respectively, was analyzed 72 h after the addition of HDACi by the Alamar blue assay, as described in Methods. The DNA intrastrand cross-linking agent cisplatin was used for control. Data shown are the mean ± SD from three independent experiments (n = 3) each performed in triplicate (N = 3); ns, not significant; *, p ≤ 0.05; **, p ≤ 0.01 as compared to the corresponding untreated controls (Student´s t-test).
V79 hamster lung cells, which are recommended in the OECD toxicology guidelines for hazard identification (i.e., cytotoxicity and genotoxicity) of chemicals, were purchased from the German Collection of Microorganisms and Cell Cultures (DSMZ, Braunschweig, Germany). They were cultured in Dulbecco´s modified Eagle medium and Ham´s F12 medium (DMEM/F12) (PromoCell, Heidelberg, Germany) containing 10% fetal calf serum at 37 °C in a humidified atmosphere containing 5% CO2. VC8 hamster cells were defective in DNA double-strand break (DSB) repair by homologous recombination (HR) due to the lack of functional BRCA2 protein [69, 70]. VC8 cells were provided by B. Kaina (Institute of Toxicology, Mainz, Germany). Nucleotide excision repair defective XPA and CSB deficient cells were also provided by B. Kaina and were described before. […]
Cell viability was determined using the Alamar blue assay, which reflected the mitochondrial activity. […] Afterwards, the Neutral red that was taken up by the cells was extracted (50% ethanol/1% of acetic acid, 15 min at room temperature (RT)) and absorbance (540 nm) was measured. […] Approximate IC50 (~IC50, see Supplementary Table S1) were calculated from the corresponding dose-response curves.

[9] = test system: VC8 hamster cells (BRCA1/2 defect); assay: Viability of DSB repair defective VC8 versus wild-type V79 cells (Alamar blue); assay type: cell-based; conditions: 72 h, Alamar blue, in words
Experimental: as §1, §2

[10] = 24 h, approximate IC50, read-out: IC50 - 24 h Treatment, IMR-32
[11] = 72 h, approximate IC50, read-out: IC50 - 72 h Treatment, IMR-32
[12] = 24 h, approximate IC50, read-out: IC50 - 24 h Treatment, SH-SY5Y
[13] = 72 h, approximate IC50, read-out: IC50 - 72 h Treatment, SH-SY5Y

SMILES: COS(C)(=O)=O [MMS, methyl methanesulfonate]
- frequency of micronuclei (V79 cells [1]): substantial clastogenicity
- DNA strand breaks (comet assay) (V79 cells [2]): substantially increased the level of DNA strand breaks
- Mean (% DNA in tail) (V79 cells [2]; hamster, 0.25 mM): 50.9 % DNA in tail

SMILES: CCCCON(Cc1ccc(C(=O)NO)cc1)C(=O)Nc1cc(C)cc(C)c1 [MPK264]
- IC50 [3, 10]: 16 µM
- IC50 [3, 11]: 2 µM
- IC50 [4, 10]: 12 µM
- IC50 [4, 11]: 2 µM
- IC50 [5, 12]: 24 µM
- IC50 [5, 13]: 3 µM
- IC50 (V79 hamster lung cells [6]; 24 h, read-out: IC50 - 24 h Treatment, V79): 22 µM
- IC50 (V79 hamster lung cells [6]; 72 h, read-out: IC50 - 72 h Treatment, V79): 19 µM
- IC50 [7, 12]: 10 µM
- IC50 [7, 13]: 3 µM
- IC50 (V79 hamster lung cells [8]; 24 h, approximate IC50, read-out: IC50 - 24 h Treatment, V79): 20 µM
- IC50 (V79 hamster lung cells [8]; 72 h, approximate IC50, read-out: IC50 - 72 h Treatment, V79): 17 µM

SMILES: N.N.[Cl][Pt][Cl] [cisplatin]
- sensitivity of XPA-deficient versus XPA proficient cells (XPA-deficient cells): XPA deficient cells are hypersensitive

SMILES: Nc1ccccc1NC(=O)c1ccc(CNc2nccc(-c3cccnc3)n2)cc1 [mocetinostat]
- sensitivity of VC8 cells versus V79 cells [9]: hypersensitive

SMILES: C/C=C1\NC(=O)[C@H]2CSSCC/C=C/[C@H](CC(=O)N[C@H](C(C)C)C(=O)N2)OC(=O)[C@H](C(C)C)NC1=O [romidepsin]
- sensitivity of VC8 cells versus V79 cells [9]: hypersensitive
